Experimental data published in paper PMC12933331, “A Cryptic Pocket Allosterically Modulates Oligosaccharide Binding to DC-SIGN” (JACS Au, 2026).
Where a chain is given by its changes, count along the chain named.

Tests used:
Experiment in all cases: Plate-based horseradish peroxidase assay
Type in all cases: binding
Details in all cases: 1 µg mL-1 HRP, 25 mM CaCl2
DC-SIGN ECD M270F = target: T1, DC-SIGN ECD M270F (Homo sapiens, UniProt Q9NNX6, M270F)
T1 construct: acids 64 -404 of DC -SIGN; made in house
T1 sequence (Q9NNX6 64-404 M270F): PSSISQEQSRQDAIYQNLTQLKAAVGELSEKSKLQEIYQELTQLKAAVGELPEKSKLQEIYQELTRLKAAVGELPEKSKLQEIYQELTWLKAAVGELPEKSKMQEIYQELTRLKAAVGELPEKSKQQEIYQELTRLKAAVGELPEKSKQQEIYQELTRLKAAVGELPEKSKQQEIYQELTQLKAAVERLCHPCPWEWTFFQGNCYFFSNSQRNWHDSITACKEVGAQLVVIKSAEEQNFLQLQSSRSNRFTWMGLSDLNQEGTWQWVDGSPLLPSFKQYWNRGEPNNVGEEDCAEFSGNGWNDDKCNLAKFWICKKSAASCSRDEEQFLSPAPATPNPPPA
Procedure: (§1) chromatography. Purified protein was dialyzed against 25 mM HEPES, 150 mM NaCl, 10 mM CaCl2, pH 7.4, concentrated using a centrifugal spin filter, snap frozen and then stored at -80°C. […]
(§2) Plate-based horseradish peroxidase assay
(§3) General remarks. Unless stated otherwise, all reagents and buffers were obtained from Sigma Aldrich or Carl Roth. Measurements were done on a Enspire Multimode Plate Reader (PerkinElmer). GraphPad Prism was used for all data processing and analysis.
(§4) CaCl2 titration. 100 µg mL-1 DC-SIGN ECD were immobilized in immobilization buffer (25 mM HEPES, 150 mM NaCl, 25 mM CaCl 2, pH 7.4) overnight at 4°C on transparent Nunc Maxisorp 96-well plates (Thermo Fisher). Protein solution was removed, and plates were washed three times with immobilization buffer and then blocked for 2 hours at 4°C with blocking buffer (25 mM HEPES, 150 mM NaCl, 25 mM CaCl 2, 2% BSA, 0.01% Tween -20). Plates were washed twice with 25 mM HEPES, 150 mM NaCl, 5 mM EDTA, pH 7.4 and twice with 25 mM HEPES, 150 mM NaCl, pH 7.4 to remove residual Ca 2+. To titrate Ca2+, CaCl2 in 25 mM HEPES, 150 mM NaCl, pH 7.4 was serially diluted on the plate at a constant HRP concentration of 1 µg mL-1 and then incubated at RT for 2 hours. Following incubation, plates were washed three times with 25 mM HEPES, 150 mM NaCl, pH 7.4 and bound HRP was detected using a TMB substrate kit (Thermo Fisher) and 0.18 M H2SO4 according to manufacturer’s instructions. Absorption was […]
(§5) HRP titration. Immobilization and blocking were done as described above. After blocking, plates were washed three times with immobilization buffer. HRP in immobilization buffer was serially diluted on the plate at a constant concentration CaCl2 concentration of 25 mM and then incubated […]
(§6) at RT for 2 hours. Following incubation, plates were washed three times with immobilization buffer and HRP was detected as described above.
(§7) Immobilization and blocking were done as described above. After blocking, plates were washed three times with immobilization buffer. Mannose in immobilization buffer containing 1 µg mL-1 HRP was serially diluted on the plate and then incubated at RT for 2 hours.
(§8) Following incubation, plates were washed three times with immobilization buffer and HRP was detected as described above.
(§9) All conditions were measured in technical triplicates, averaged and normalized to the control well […]
(§10) IC50 and EC50 values and hill […]
(§11) slopes (nH) were obtained in a four-parameter fit according to equation (1).
(§12) Y = bottom + top − bottom (1)
(§13) With bottom and top representing the minimal and maximal response plateaus, respectively, Y as the observed response and X the logarithmic concentration of the ligand . […]
(§14) Biosynth. Spectra were processed in TopSpin 4.2.0 and data analysis was performed using CCPN Analysis 3.2.0 for 2D spectra and in MestreNova for 1D spectra.2 Further analysis was done using GraphPad Prism and in-house python scripts.

DC-SIGN ECD wildtype = target: T2, DC-SIGN ECD wildtype (Homo sapiens, UniProt Q9NNX6)
T2 construct: acids 64 -404 of DC -SIGN; made in house
T2 sequence (Q9NNX6 64-404): T1 sequence (Q9NNX6 64-404 M270F) with F207M
Procedure: as §1, §2, §3, §4, §5, §6, §7, §8, §9, §10, §11, §12, §13, §14

DC-SIGN ECD T314A = target: T3, DC-SIGN ECD T314A (Homo sapiens, UniProt Q9NNX6, T314A)
T3 construct: acids 64 -404 of DC -SIGN; made in house
T3 sequence (Q9NNX6 64-404 T314A): T1 sequence (Q9NNX6 64-404 M270F) with F207M, T251A

[1] = read-out: IC50, inhibition of HRP binding

- hill slope, inhibition of HRP binding (DC-SIGN ECD M270F): -1.5
- IC50 (DC-SIGN ECD M270F; [1]): 3100 µM
- hill slope, inhibition of HRP binding (DC-SIGN ECD wildtype): -1.8
- IC50 (DC-SIGN ECD wildtype; [1]): 2300 µM
- hill slope, inhibition of HRP binding (DC-SIGN ECD T314A): -2.1
Compound: OC[C@H]1OC(O)[C@@H](O)[C@@H](O)[C@@H]1O (some centres unmarked) [mannose]
